Measurements as given in PMC6572618, “Anti-Trypanosomal and Antimalarial Properties of Tetralone Derivatives and Structurally Related Benzocycloalkanones” (Medicina, 2019).
Where “and” joins values, the source holds several entries; their conditions need not be identical. Identical values can stand only once. Like-named read-outs stand apart in the source and are kept apart here.

Legend:
Type in all cases: cell-based
[1] = test system: 427 Trypanosoma brucei brucei trypomastigotes; assay: In vitro anti-trypanosomal assay (resazurin); conditions: 48 h; for % Viability at 20 µM (SD) T.b. brucei / viability at 20 µM: 20 µM compound, % parasite viability relative to untreated control; for IC50: three-fold serial dilutions from 100 µM, read-out: IC50 (µM) T. b. brucei; for viability at 20 µM: read-out: % Viability at 20 µM (SD) T.b. brucei
Method: The activity of the compounds against 427 Trypanosoma brucei brucei trypomastigotes was determined as previously described. Briefly, parasites were incubated in 96-well plates with 20 µM or three-fold serial dilutions (100 µM starting concentration) of test compounds in Iscove’s modified Dulbecco’s medium (IMDM) (Lonza, Basel, Switzerland) supplemented with 10% fetal calf serum, HMI-9 supplement, hypoxanthine, and penicillin/streptomycin at 37 °C in a 5% CO2 incubator. After 48 h, 20 µL of resazurin reagent (0.135 mg/mL resazurin in phosphate-buffered saline) was added to each well and the fluorescence (Ex560/Em590) read after 2–4 h in a Spectramax M3 plate reader (Molecular Devices, San Jose, CA, USA). The fluorescence readings were used to calculate % parasite viability relative to the readings obtained from the wells containing untreated control parasite cultures. The IC50 values were determined by plotting % viability vs. log(compound) and performing a non-linear regression using a GraphPad Prism (v. 5.02) (San Diego, CA, USA).
(§1) Thirty-five tetralone derivatives (see Figure 2) and six related benzocycloalkanones (see Figure 3) were evaluated in vitro against T. b. brucei for antitrypanosomal activity through the resazurin assay protocol. The compounds were also evaluated against the chloroquine-sensitive strain (3D7) of P. falciparum for antimalarial activity using pLDH assay and against the HeLa cell line for cytotoxicity evaluation using the resazurin assay protocol.

[2] = test system: chloroquine sensitive strain of P. falciparum (3D7); assay: In vitro antiplasmodial assay (parasite lactate dehydrogenase, pLDH); conditions: for viability at 20 µM: Plasmodium falciparum, 3D7, 48 h, read-out: % Viability at 20 µM (SD) 3D7
Method: An antimalarial evaluation was performed against the chloroquine sensitive strain of P. falciparum (3D7) using the parasite lactate dehydrogenase (pLDH) assay as previously reported. Parasites were seeded at 2% parasitemia and 1% hematocrit in 96 well plates and were incubated with 20 µM of the test compounds for 48 h in culture medium consisting of Rosell Park Memorial Institute (RPMI 1640; Lonza, Basel, Switzerland) containing 25 mM 4-(2-hydroxyethyl)-1-piperazineethanesulfonic acid (HEPES), supplemented with 0.5% (w/v) Albumax II, 22 mM glucose, 0.65 mM hypoxanthine, 0.05mg/mL gentamicin, and 1% (v/v) human erythrocytes, at 37 °C under an atmosphere of 5% CO2, 5% O2, and 90% N2. The parasite lactate dehydrogenase activity in the wells was determined using the colorimetric assay method of Makler et al.. The absorbance readings were converted to % parasite viability relative to the wells containing untreated parasites.
as §1

[3] = In vitro cytotoxicity assay (resazurin); conditions: human, 20 µM compound, 24 h, % cell viability relative to untreated control, read-out: % Viability at 20 µM (SD) HeLa Cell
Method: (§2) As previously described, HeLa cells (Cellonex, Johannesburg, South Africa) were seeded in 96-well plates at a density of 2 × 10^4 cells/well in Dulbecco’s modified Eagle’s medium (DMEM) (Lonza, Basel, Switzerland) supplemented with 10% fetal calf serum and antibiotics (penicillin/streptomycin/amphotericin B) and incubated overnight at 37 °C in a 5% CO2 incubator. Compounds were added to the cells at a final concentration of 20 µM, and incubation continued for 24 h. The cell viability in the wells was assessed by adding 20 µL of resazurin reagent (0.135 mg/mL resazurin in phosphate-buffered saline) and reading the fluorescence (Ex560/Em590) after an additional 2–4 h incubation. The fluorescence readings were converted to % cell viability relative to the average readings obtained from the untreated control wells.
as §1

HeLa cells = assay: In vitro cytotoxicity assay (resazurin)
Method: as §2, §1

[4] = 20 µM compound, 24 h, % cell viability relative to untreated control
[5] = 20 µM compound, 48 h, P. falciparum 3D7, % parasite viability relative to untreated parasites

| SMILES | % Viability at 20 µM (SD) 3D7 ([2]; 20 µM) | % Viability at 20 µM (SD) HeLa Cell (HeLa cells; [4]) | % Viability at 20 µM (SD) T.b. brucei [1] | further results |
| --- | --- | --- | --- | --- |
| O=C1/C(=C/c2ccc(Cl)cc2)COc2ccccc21 [Compound 38] | – | – | – | % Viability at 20 µM (SD) T.b. brucei ([1]; 20 µM): 0.4 (0.2) %; IC50 ([1]; Trypanosoma brucei): 0.4 µM; viability at 20 µM [2]: 98%; viability at 24 h, 20 µM [3]: 75% |
| O=C1/C(=C/c2ccc(F)cc2)CCc2ccc(O)cc21 [Compound 12] | – | – | – | viability at 20 µM ([1]; Trypanosoma brucei): -0.6%; IC50 ([1]; Trypanosoma brucei): 0.6 µM; IC50 [1]: 0.68 µM; viability at 24 h, 20 µM ([3]; HeLa cells): 29% |
| O=C1/C(=C/c2ccc(Cl)cc2)CCCc2ccccc21 [Compound 37] | 113 (0.6) % | 53 (10) % | – | % Viability at 20 µM (SD) T.b. brucei ([1]; 20 µM): 0.3 (0.3) % |
| O=C1/C(=C/c2ccc(O)cc2)CCc2ccc(O)cc21 [Compound 19] | 104 (12) % | 44 (4) % | 1 (0.2) % | – |
| COc1ccc(/C=C2\CCc3ccc(O)cc3C2=O)cc1 [Compound 23] | 88 (10) % | 25 (2) % | 0.2 (0.1) % | – |
| COc1ccc2c(c1)C(=O)/C(=C/c1ccccn1)CC2 [Compound 33] | 7 (8) % | 20 (0.6) % | −0.4 (0.2) % | – |
| O=C1/C(=C/c2ccc(F)cc2)CCc2ccccc21 [Compound 5] | 107 (5) % | 100 (2) % | – | – |
| O=c1c(Cc2ccc(Cl)cc2)coc2ccccc12 [Compound 40] | 90 (6) % | 103 (3) % | – | % Viability at 20 µM (SD) T.b. brucei ([1]; 20 µM): 94 (7) % |
| O=C1/C(=C/c2cccc(Br)c2)CCc2ccc(O)cc21 [Compound 18] | 99 (8) % | 26 (3) % | 1.2 (0.31) % | – |
| O=C1/C(=C/c2cccc(F)c2)CCc2ccccc21 [Compound 6] | – | – | – | viability at 20 µM ([1]; Trypanosoma brucei): 0.5%; IC50 ([1]; Trypanosoma brucei): 3.1 µM; viability at 20 µM [2, 5]: 131%; viability at 24 h, 20 µM ([3]; HeLa cells): 121% |
| O=C1/C(=C/c2cccc(Cl)c2)CCc2ccccc21 [Compound 17] | 100 (9) % | 41 (13) % | 0.2 (0.3) % | – |
| O=C1/C(=C/c2ccccc2)CCc2c(O)cccc21 [Compound 8] | – | 35 (1) % | 0.5 (0.1) % | – |
| O=C1/C(=C/c2ccc(Br)cc2)CCc2ccc(O)cc21 [Compound 16] | – | – | – | viability at 20 µM ([1]; Trypanosoma brucei): 0.1%; IC50 ([1]; Trypanosoma brucei): 1.24 µM; viability at 20 µM [2, 5]: 43%; viability at 24 h, 20 µM ([3]; HeLa cells): 62% |
| O=C1/C(=C/c2ccc(Cl)cc2)CSc2ccccc21 [Compound 39] | 11 (0.9) % | 8 (2) % | – | % Viability at 20 µM (SD) T.b. brucei ([1]; 20 µM): 0.3 (0.3) % |
| O=C1/C(=C/c2cccc(F)c2)CCc2ccc(O)cc21 [Compound 13] | 13 (1) % | 21 (1) % | −0.9 (0.1) % | – |
| O=C1/C(=C/c2ccc(Cl)cc2)Cc2ccccc21 [Compound 36] | 93 (3) % | 74 (10) % | – | % Viability at 20 µM (SD) T.b. brucei ([1]; 20 µM): 99 (0.1) % |
| N#Cc1cccc(/C=C2\CCc3ccccc3C2=O)c1 [Compound 1] | – | – | – | viability at 20 µM ([1]; Trypanosoma brucei): 0.06%; IC50 ([1]; Trypanosoma brucei): 2.3 µM; viability at 20 µM [2, 5]: 113%; viability at 24 h, 20 µM ([3]; HeLa cells): 87% |
| COc1ccc2c(c1)C(=O)/C(=C/c1cccnc1)CC2 [Compound 31] | 85 (12) % | 17 (4) % | – | – |

| SMILES | % Viability at 20 µM (SD) 3D7 ([2]; 20 µM) | % Viability at 20 µM (SD) HeLa Cell (HeLa cells; [4]) | % Viability at 20 µM (SD) T.b. brucei [1] | further results |
| --- | --- | --- | --- | --- |
| O=C1/C(=C/c2cccnc2)CCc2ccccc21 [Compound 25] | 29 (12) % | 24 (0.4) % | −0.7 (0.4) % | – |
| COc1ccc2c(c1)C(=O)/C(=C/c1ccc[nH]1)CC2 [Compound 29] | 115 (5) % | 97 (5) % | 103 (1) % | – |
| N=C(N)c1ccc(OCCCCCOc2ccc(C(=N)N)cc2)cc1 [PE, pentamidine, reference compound] | – | – | – | IC50 ([1]; Trypanosoma brucei): 0.0042 µM |
| N#Cc1cccc(/C=C2\CCc3ccc(N)cc3C2=O)c1 [Compound 2] | 110 (1) % | 77 (2) % | 95 (3) % | – |
| O=C1/C(=C/c2ccccc2)CCc2ccccc21 [Compound 3] | – | – | 43 (3) % | % Viability at 20 µM (SD) 3D7 [2, 5]: 103 (2) %; % Viability at 20 µM (SD) HeLa Cell (HeLa cells; 20 µM): 116 (5) % |
| COc1ccc2c(c1)C(=O)/C(=C/C1CCCCC1)CC2 [Compound 26] | – | – | – | viability at 20 µM ([1]; Trypanosoma brucei): < 1%; viability at 20 µM [2, 5]: 119%; viability at 24 h, 20 µM ([3]; HeLa cells): 92% |
| Cc1ccc(/C=C2\CCc3ccc(O)cc3C2=O)cc1 [Compound 20] | – | – | – | viability at 20 µM ([1]; Trypanosoma brucei): -0.4%; IC50 ([1]; Trypanosoma brucei): 5.3 µM; viability at 20 µM [2, 5]: 116%; viability at 24 h, 20 µM ([3]; HeLa cells): 69% |
| O=c1c(Cc2ccc(Cl)cc2)csc2ccccc12 [Compound 41] | 107 (5) % | 109 (7) % | – | % Viability at 20 µM (SD) T.b. brucei ([1]; 20 µM): 103 (0.3) % |
| COc1ccc2c(c1)C(=O)/C(=C/c1ccco1)CC2 [Compound 28] | 100 (3) % | 97 (9) % | 31 (5) % | – |
| O=C1/C(=C/c2ccccc2)CCc2ccc(O)cc21 [Compound 9] | 101 (4) % | 9 (0.1) % | −4 (0.3) % | – |
| O=C1/C(=C/c2cccc(Cl)c2)CCc2ccc(O)cc21 [Compound 15] | −3 (6) % | 18 (0.4) % | 0.6 (0.01) % | – |
| O=C1/C(=C/c2ccc(Cl)cc2)CCc2ccc(O)cc21 [Compound 14] | – | 27 (2) % | 0.1 (0.1) % | – |
| CN(C)c1ccc(/C=C2\CCc3ccc(O)cc3C2=O)cc1 [Compound 21] | 142 (9) % | 51 (4) % | 25 (2) % | – |
| O=C1/C(=C/c2ccc(Cl)cc2)CCc2ccccc21 [Compound 24] | 100 (8) % | 100 (3) % | 26 (8) % | – |
| Nc1ccc2c(c1)CC/C(=C\c1ccccc1)C2=O [Compound 11] | 111 (1) % | 86 (9) % | – | % Viability at 20 µM (SD) T.b. brucei ([1]; 20 µM): 95% and 97 (0.3) % |
| COc1ccc2c(c1)C(=O)/C(=C/c1cccs1)CC2 [Compound 30] | 107 (6) % | 106 (2) % | 32 (9) % | – |
| COc1ccc2c(c1)C(=O)/C(=C/c1cccnc1Cl)CC2 [Compound 34] | 113 (6) % | 47 (1.7) % | 98 (2) % | – |
| O=C1/C(=C/c2ccc(Cl)c(Cl)c2)CCc2ccc(O)cc21 [Compound 22] | 81 (1) % | 5 (0.9) % | 0.9 (0.2) % | – |
